Laboratory results reported in patent publication US11268958B2, “Bacteria-specific labeled substrtates as imaging biomarkers to diagnose, locate, and monitor infections” (THE JOHNS HOPKINS UNIVERSITY, priority 2012, dated 2022).
Like-named read-outs stand apart in the source and are kept apart here.

Assays:
[1] = tested on: Mycobacterium tuberculosis
Procedure: (§3) In vitro uptake assays: Freeze dried reference strains of various bacterial species were purchased from American Type Culture Collection (Manassas, Va.) and grown to mid-log phase (OD600 1.0) in Lysogeny Broth (LB) or Middlebrook 7H9 broth supplemented with 10% oleic acid-albumin-dextrose-catalase (Difco, Detroit, Mich.) and 0.05% Tween 80 (Sigma). The number of colony forming units (CFUs) were enumerated by dilution and plating onto solidified media. Tracer uptake assays were performed by incubating bacterial cultures with 7.4 kBq per ml culture of tracer at 37° C. with rapid agitation for 4 hours, with sampling at 0, 30, 120, and 240 minutes. As a control, heat killed (90° C. for 20 minutes) bacteria were similarly incubated with each tracer. Bacteria were pelleted by centrifugation and washed three times with PBS. The activity for each pellet was measured using an automated gamma counter (1282 Compugamma CS Universal gamma counter, LKB Wallac). Background counts were subtracted from sample counts. Six independent replicates were used for each tracer, and for each bacterial strain. Uptake was expressed as the percentage of total tracer added to the culture that resided within the cell pellet.

S. aureus = experiment: Scintillation counting of resected tissues in S. aureus thigh infection vs LPS; type: in vivo, CBA/J mice; conditions: live S. aureus right thigh, 50 μg LPS left thigh, IV
Procedure: We next investigated whether [^3H]-2-F-PABA was capable of detecting infection with S. aureus in vivo. […] [^3H]-2-F-PABA was injected IV using a tail vein catheter. Mice were sacrificed following injection, tissues were then resected and radiotracer uptake measured by scintillation counting.

[2] = tested on: Staphylococcus aureus, Escherichia coli, Mycobacterium smegmatis; experiment: Differential intracellular accumulation in three model bacteria; conditions: S. aureus, E. coli, M. smegmatis
Procedure: as §3

Staphylococcus aureus = experiment: Intracellular tracer uptake assay in S. aureus cultures; type: cell-based; conditions: for intracellular uptake / probe incorporated by bacteria (percent of total radioactivity): S. aureus; for probe incorporated by bacteria (percent of total radioactivity): gram positive control, 120 minutes
Escherichia coli = experiment: Intracellular tracer uptake assay in E. coli cultures; type: cell-based
heat killed bacteria = experiment: Tracer uptake in heat killed bacteria (negative control); type: cell-based
From the text: Background counts were subtracted from sample counts.
(§1) [^18F]FDS uptake and imaging. […] Tissues were collected for direct gamma counting.

J774 macrophages = experiment: Tracer uptake in host cells (J774 macrophages); type: cell-based; conditions: for accumulation in eukaryotic cell line: J774 macrophage (data not shown)
[3] = tested on: Human Brain Microvascular Endothelial Cells (HBMEC); conditions: 2 h
Mycobacterium smegmatis = experiment: Intracellular tracer uptake assay in M. smegmatis cultures; conditions: 2 hours of incubation
Procedure: as §3

E. coli = conditions: for right thigh vs. left thigh uptake ratio (gamma counts of resected tissues) / PET signal intensity, infected right thigh versus control left thigh (ROIs): live E. coli right thigh, heat killed E. coli left thigh; for PET signal intensity, infected right thigh versus control left thigh (ROIs): 8 hours incubation
WEHI 164 fibroblasts = experiment: Tracer uptake in WEHI 164 fibroblasts; type: cell-based; conditions: WEHI 164 fibroblast (data not shown)
[4] = tested on: Enterococcus, Staphylococcus and Streptococcus species; experiment: [18F]FDS uptake in representative organisms: gram positive organisms; type: cell-based
Procedure: as §1
(§2) To further assess the specificity of uptake, E. coli cultures were co-incubated with [^18F]FDS and increasing concentrations of unlabeled sorbitol (FIG. 6B). […] The presence of a srl gene cassette responsible for sorbitol transport, phosphorylation, and oxidation was noted within the annotated genome of E. coli. To predict the range of organisms capable of [^18F]FDS uptake, and therefore detection by PET, the srlD, the gene encoding E. coli sorbitol-6-phosphate dehydrogenase was used to query the UniProtKB database of genome sequenced bacterial species. Alignment and percentage identity was calculated using ClustalOmega. We then selected representative organisms from this panel to test for [^18F]FDS uptake (FIG. 6C).

K. pneumoniae [5] = experiment: Intracellular tracer uptake assay in K. pneumoniae cultures; conditions: after 120 minutes
Procedure: as §3

Pseudomonas aeruginosa = experiment: [18F]FDS uptake in representative organisms: Pseudomonas aeruginosa; type: cell-based; conditions: aerobic gram-negative rod Pseudomonas aeruginosa
Procedure: as §1, §2

E. coli vs S. aureus = experiment: PET imaging and gamma counting in mixed infection model (E. coli right thigh, S. aureus left thigh); conditions: 6 hours incubation, imaging
K. pneumoniae [6] = experiment: PET imaging and gamma counting in K. pneumoniae pulmonary infection model; type: in vivo, CBA/J mice
[7] = tested on: Enterobacteriaceae family; experiment: [18F]FDS uptake in representative organisms: Enterobacteriaceae; type: cell-based; conditions: members of the Enterobacteriaceae family
Procedure: as §1, §2

[8] = M. tb, ^3H labeled tracers, 18 hours of incubation

SMILES: Nc1ccc(C(=O)O)c(F)c1 [2-F-PABA, 2-fluoro-PABA]
- intracellular uptake [1, 8]: 29.4%
- right thigh vs. left thigh uptake ratio (scintillation counting) (S. aureus): 2.62±0.98

SMILES: Nc1ccc(C(=O)O)cc1F [3-F-PABA, 3-fluoro-PABA]
- intracellular uptake [1, 8]: 11.2%

SMILES: NC(CCCC(N)C(=O)O)C(=O)O (stereo not shown) [DAP, 2,6-diaminopimelic acid]
- species that take up the compound (differential uptake) [2]: E. coli and M. smegmatis

SMILES: Nc1ccc(C(=O)O)cc1 [PABA, p-aminobenzoic acid]
- uptake saturability/specificity (Staphylococcus aureus; S. aureus mid log cultures): saturable and specific
- uptake saturability/specificity (Escherichia coli; E. coli mid log cultures): saturable and specific
- accumulation (percent of total radioactivity in bacterial pellet) ([1]; 2 h): 32.9%
- accumulation (percent of total radioactivity in bacterial pellet) ([1]; 18 h): 96.3%
- intracellular uptake ([1]; 18 h): 58.5%
- uptake on addition of excess unlabelled tracer ([1]; M. tuberculosis, excess unlabelled tracer): saturable and specific
- uptake in heat killed bacteria (heat killed bacteria): no uptake
- accumulation in host-cells (J774 macrophages; J774 macrophages, corresponding time-points (2 and 18 hours)): no significant accumulation

SMILES: O=C[C@H](O)[C@@H](O)[C@H](O)CO [XYL, D-xylose]
- species that take up the compound (differential uptake) [2]: E. coli alone

SMILES: OC[C@@H](O)[C@@H](O)[C@H](O)[C@H](O)CO [[^14C] D-mannitol, D-mannitol]
- intracellular uptake (Staphylococcus aureus; 30 minutes, 5 mM glucose): 33%
- intracellular uptake (Staphylococcus aureus; 30 minutes, 10 mM glucose): 30%
- intracellular uptake (Staphylococcus aureus; 30 minutes, without any glucose in the media): 53.5%
- intracellular uptake (Staphylococcus aureus; 2 hours of incubation): 66%
- intracellular uptake (Escherichia coli; E. coli, 2 hours of incubation): 82%
- uptake [3]: < 5%
- uptake in heat killed bacteria (heat killed bacteria): No uptake
- uptake (J774 macrophages; 2 h): < 5%
- intracellular uptake (Mycobacterium smegmatis): 83%

SMILES: OC[C@H]1OC(O)[C@H]([18F])[C@@H](O)[C@@H]1O (stereo partly shown) [[^18F]FDG, 2-[^18F]-fluorodeoxyglucose, reference compound]
- probe incorporated by bacteria (percent of total radioactivity) (Staphylococcus aureus): 50.3%±3.1%
- right thigh vs. left thigh uptake ratio (gamma counts of resected tissues) (E. coli): 1.03±0.09
- PET signal intensity, infected right thigh versus control left thigh (ROIs) (E. coli): did not produce a significant difference
- sites of PET signal concentration (E. coli; mice, CT coregistration): heart and bladder
- accumulation in eukaryotic cell line (WEHI 164 fibroblasts): accumulated
- uptake in heat killed bacteria (heat killed bacteria): did not incorporate
- accumulation in eukaryotic cell line (J774 macrophages): accumulated

SMILES: OC[C@@H](O)[C@@H](O)[C@H](O)[C@@H]([18F])CO [[^18F]FDS, 2-[^18F]-fluorodeoxysorbitol]
- probe incorporated by bacteria (percent of total radioactivity) (Staphylococcus aureus): 0.47%±0.09%
- accumulation of the probe [4]: did not accumulate
- right thigh vs. left thigh uptake ratio (gamma counts of resected tissues) (E. coli): 16.37±4.12
- PET signal intensity, infected right thigh versus control left thigh (ROIs) (E. coli): 12 fold
- route of clearance from circulation (E. coli; mice, over 120 minutes of recording (data not shown)): predominantly by the kidneys
- accumulation in eukaryotic cell line (WEHI 164 fibroblasts): not
- probe associated with bacteria (percent of total radioactivity) (Escherichia coli; E. coli K12, after 120 minutes): 72.2%±9.0%
- concentration of unlabeled sorbitol that outcompetes uptake (Escherichia coli; E. coli co-incubated with increasing unlabeled sorbitol): above 40 ug/ml
- concentration of unlabeled sorbitol that outcompetes uptake (Escherichia coli; E. coli co-incubated with increasing unlabeled sorbitol (FIG. 6B legend)): above 40 μg/ml
- probe associated with bacteria (percent of total radioactivity) (K. pneumoniae [5]): 71.1%±8.6%
- accumulation of the probe (Pseudomonas aeruginosa): did not accumulate
- PET signal at E. coli infected thigh versus S. aureus infected thigh (E. coli vs S. aureus): significantly more intensity
- lung vs. blood gamma count ratio (K. pneumoniae [6]): 10.89±4.09
- ratio of standardized uptake values, infiltrated vs normal lung tissue ROIs (K. pneumoniae [6]; 18.5 MBq (data not shown)): 5.02±66.33
- uptake in heat killed bacteria (heat killed bacteria): did not incorporate
- accumulation in eukaryotic cell line (J774 macrophages): not
- accumulation of the probe [7]: accumulated
